In ChEMBL document CHEMBL1201862, “PubChem BioAssay data set” (2004):
Where “and” joins values, the source holds several entries; their conditions need not be identical. Equal values may be shown once. Calls of active or inactive are those of the source.

Columns and labels:
[1] = target: Intestinal-type alkaline phosphatase (Mus musculus, UniProt P24822); experiment: PubChem AID 488785; type: functional
[2] = target: T1, Alkaline phosphatase, tissue-nonspecific isozyme (Homo sapiens, UniProt P05186); experiment: TNAP enzyme inhibition by screening hits, dose response, selectivity assay for mouse IAP inhibitor project, biochemical, human TNAP, uHTS hits (AID 488906); type: functional
T1 sequence (P05186 whole entry): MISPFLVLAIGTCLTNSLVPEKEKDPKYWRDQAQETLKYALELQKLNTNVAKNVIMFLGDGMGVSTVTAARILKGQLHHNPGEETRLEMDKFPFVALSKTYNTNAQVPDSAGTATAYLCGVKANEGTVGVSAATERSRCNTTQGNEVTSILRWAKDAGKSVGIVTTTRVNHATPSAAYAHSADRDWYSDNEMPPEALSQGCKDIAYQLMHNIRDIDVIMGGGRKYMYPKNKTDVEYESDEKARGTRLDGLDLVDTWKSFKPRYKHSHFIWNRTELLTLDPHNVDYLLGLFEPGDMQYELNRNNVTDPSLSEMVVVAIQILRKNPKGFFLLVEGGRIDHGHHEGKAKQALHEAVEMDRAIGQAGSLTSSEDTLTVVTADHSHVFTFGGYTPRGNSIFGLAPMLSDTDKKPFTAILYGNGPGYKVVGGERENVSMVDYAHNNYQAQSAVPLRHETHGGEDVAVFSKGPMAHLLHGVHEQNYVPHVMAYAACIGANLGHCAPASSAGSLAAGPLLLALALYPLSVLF

[3] = target: Intestinal-type alkaline phosphatase (Homo sapiens, UniProt P09923); experiment: inhibition of human intestinal alkaline phosphatase – biochemical, dose response (AID 488876); type: functional
Chain of Intestinal-type alkaline phosphatase (Homo sapiens, UniProt P09923) (P09923 whole entry): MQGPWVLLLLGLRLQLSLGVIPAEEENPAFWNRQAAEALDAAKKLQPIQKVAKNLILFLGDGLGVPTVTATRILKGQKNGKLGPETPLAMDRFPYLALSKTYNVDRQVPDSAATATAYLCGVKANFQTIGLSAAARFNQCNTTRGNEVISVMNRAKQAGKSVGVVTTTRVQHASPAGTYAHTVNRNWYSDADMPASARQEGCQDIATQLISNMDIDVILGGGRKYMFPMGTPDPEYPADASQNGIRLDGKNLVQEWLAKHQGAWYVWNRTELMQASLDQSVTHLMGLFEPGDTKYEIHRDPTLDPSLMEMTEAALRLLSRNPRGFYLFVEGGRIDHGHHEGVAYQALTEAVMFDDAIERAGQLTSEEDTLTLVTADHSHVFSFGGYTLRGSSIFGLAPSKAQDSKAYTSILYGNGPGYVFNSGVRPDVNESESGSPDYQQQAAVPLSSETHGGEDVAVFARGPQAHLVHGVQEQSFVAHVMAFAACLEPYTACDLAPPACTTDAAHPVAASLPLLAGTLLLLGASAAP

[4] = NIH-3T3 fibroblast cytotoxicity, dose response, cytotoxicity control, cell-based, fluorescence, Alamar Blue, secondary assay (AID 2327); type: functional;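 further: NIH-3T3 mouse fibroblasts cultured with fluconazole at 8 µg/mL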
[5] = target: Sphingosine 1-phosphate receptor 1 (Homo sapiens, UniProt P21453); experiment: Fluorescence-based counterscreen assay for S1P4 agonists: Cell-based dose response high throughput screening assay to identify agonists of the Sphingosine 1-Phosphate Receptor 1 (S1P1). [Related pubchem assays (depositor defined):AID1509, AID1523, AID1801, AID463107, AID463118, AID463119, AID463122, AID463123, AID463129, AID463225, AID504400, AID504460]; type: functional
Chain of Sphingosine 1-phosphate receptor 1 (P21453 whole entry): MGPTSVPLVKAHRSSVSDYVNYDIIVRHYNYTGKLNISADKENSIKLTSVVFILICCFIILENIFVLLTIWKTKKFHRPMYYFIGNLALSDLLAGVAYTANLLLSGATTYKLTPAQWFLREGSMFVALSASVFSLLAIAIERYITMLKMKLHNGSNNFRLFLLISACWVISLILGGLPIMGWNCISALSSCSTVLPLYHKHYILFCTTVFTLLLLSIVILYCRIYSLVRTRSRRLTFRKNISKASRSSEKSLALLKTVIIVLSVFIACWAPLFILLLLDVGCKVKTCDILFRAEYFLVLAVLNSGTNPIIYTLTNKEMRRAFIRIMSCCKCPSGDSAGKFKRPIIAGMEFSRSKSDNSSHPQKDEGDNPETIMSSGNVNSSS

[6] = C. albicans growth with fluconazole, confirmation, fluorescence, retest (AID 2467); type: functional, cell-based
[7] = target: Sphingosine 1-phosphate receptor 4 (Homo sapiens, UniProt O95977); experiment: Fluorescence dose response cell-based high throughput screening assay for agonists of the Sphingosine 1-Phosphate Receptor 4 (S1P4). [Related pubchem assays: 1509 (Primary screen.), 1523 (Confirmation screen in triplicates.)]; type: functional
Chain of Sphingosine 1-phosphate receptor 4 (O95977 whole entry): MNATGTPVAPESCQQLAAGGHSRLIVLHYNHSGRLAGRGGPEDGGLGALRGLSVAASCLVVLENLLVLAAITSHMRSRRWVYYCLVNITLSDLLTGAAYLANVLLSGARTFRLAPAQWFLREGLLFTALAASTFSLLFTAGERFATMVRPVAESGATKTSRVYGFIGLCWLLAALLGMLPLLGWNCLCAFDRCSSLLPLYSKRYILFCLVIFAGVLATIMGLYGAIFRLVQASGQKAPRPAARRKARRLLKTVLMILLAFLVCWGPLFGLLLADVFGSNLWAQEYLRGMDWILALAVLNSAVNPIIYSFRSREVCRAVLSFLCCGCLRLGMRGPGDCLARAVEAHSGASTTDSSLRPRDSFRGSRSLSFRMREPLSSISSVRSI

[8] = target: Sphingosine 1-phosphate receptor 2 (Homo sapiens, UniProt O95136); experiment: Dose Response Cell Based Assay for Agonists of the S1P2 Receptor. [Related pubchem assays: 729, 736, 843 ]; type: functional
Chain of Sphingosine 1-phosphate receptor 2 (O95136 whole entry): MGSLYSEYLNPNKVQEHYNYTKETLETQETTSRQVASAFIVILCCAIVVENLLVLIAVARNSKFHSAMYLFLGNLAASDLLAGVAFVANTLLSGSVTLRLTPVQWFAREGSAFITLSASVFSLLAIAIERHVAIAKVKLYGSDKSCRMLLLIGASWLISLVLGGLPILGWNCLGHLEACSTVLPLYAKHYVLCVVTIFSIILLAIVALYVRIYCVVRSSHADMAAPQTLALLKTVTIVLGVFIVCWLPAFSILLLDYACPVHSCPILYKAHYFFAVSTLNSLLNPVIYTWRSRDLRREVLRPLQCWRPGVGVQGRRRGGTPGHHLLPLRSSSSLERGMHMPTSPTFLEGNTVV

[9] = target: Tumor necrosis factor (Homo sapiens, UniProt P01375); experiment: TNFa-triggered NF-kB activation inhibitors, SAR follow-up, cell-based, revised (AID 2337); type: functional
Chain of Tumor necrosis factor (P01375 whole entry, the tested form may be a part): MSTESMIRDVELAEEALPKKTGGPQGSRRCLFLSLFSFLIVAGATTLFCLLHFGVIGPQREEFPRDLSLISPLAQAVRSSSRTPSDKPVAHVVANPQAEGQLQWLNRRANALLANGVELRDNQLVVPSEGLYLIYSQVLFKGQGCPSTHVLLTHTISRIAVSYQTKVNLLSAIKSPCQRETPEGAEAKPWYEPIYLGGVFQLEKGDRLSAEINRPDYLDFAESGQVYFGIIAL

[10] = target: Nucleotide-binding oligomerization domain-containing protein 1 (Homo sapiens, UniProt Q9Y239); experiment: NOD1 signaling inhibitors, SAR follow-up, revised (AID 2333); type: functional
Chain of Nucleotide-binding oligomerization domain-containing protein 1 (Q9Y239 whole entry, the tested form may be a part): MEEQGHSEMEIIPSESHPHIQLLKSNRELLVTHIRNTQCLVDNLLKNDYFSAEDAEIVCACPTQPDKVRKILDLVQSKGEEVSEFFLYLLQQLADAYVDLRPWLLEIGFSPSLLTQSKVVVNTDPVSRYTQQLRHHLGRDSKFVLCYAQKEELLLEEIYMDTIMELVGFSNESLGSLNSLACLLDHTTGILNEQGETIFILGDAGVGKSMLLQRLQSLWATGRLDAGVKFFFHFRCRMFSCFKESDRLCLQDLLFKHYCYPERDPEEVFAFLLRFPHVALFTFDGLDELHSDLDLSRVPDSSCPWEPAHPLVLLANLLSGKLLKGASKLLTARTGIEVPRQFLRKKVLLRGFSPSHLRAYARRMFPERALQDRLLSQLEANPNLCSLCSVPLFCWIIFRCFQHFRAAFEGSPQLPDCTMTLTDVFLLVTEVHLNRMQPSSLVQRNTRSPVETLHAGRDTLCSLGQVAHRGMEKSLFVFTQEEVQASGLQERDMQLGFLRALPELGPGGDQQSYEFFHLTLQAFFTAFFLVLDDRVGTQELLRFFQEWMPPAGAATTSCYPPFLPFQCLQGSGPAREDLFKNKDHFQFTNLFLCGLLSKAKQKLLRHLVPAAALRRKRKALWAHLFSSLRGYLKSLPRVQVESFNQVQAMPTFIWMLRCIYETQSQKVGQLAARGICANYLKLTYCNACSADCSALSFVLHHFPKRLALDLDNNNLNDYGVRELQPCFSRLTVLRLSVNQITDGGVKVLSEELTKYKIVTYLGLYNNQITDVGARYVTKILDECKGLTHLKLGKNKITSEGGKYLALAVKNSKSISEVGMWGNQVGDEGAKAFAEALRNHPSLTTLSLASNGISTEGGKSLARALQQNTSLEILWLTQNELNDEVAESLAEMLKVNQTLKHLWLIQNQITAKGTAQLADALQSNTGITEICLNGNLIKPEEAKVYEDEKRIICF

[11] = test system: HEK293; experiment: cells; conditions: Homo sapiens;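 further: cells exposed to compound for 14 hours overnight before viability readout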

Chain of Intestinal-type alkaline phosphatase (Mus musculus, UniProt P24822) (P24822 whole entry): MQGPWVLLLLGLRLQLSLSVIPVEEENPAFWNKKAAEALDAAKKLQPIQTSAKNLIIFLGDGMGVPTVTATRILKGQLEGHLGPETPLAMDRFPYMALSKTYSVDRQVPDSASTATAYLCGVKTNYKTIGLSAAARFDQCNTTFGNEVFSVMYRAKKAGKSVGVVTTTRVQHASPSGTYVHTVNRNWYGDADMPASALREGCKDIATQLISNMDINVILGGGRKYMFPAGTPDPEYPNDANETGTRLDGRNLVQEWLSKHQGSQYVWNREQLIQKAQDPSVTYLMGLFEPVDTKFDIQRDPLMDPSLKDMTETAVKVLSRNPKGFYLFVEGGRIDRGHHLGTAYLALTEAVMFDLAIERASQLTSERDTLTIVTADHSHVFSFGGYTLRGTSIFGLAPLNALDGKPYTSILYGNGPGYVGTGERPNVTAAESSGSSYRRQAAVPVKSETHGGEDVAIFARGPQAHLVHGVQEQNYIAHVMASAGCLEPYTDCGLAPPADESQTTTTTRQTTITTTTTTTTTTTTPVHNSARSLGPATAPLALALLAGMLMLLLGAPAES

For `COC(=O)c1ccc(NS(=O)(=O)c2ccc3[nH]c(=O)oc3c2)cc1`, the IC50 [1] was 2.6 µM (active), the IC50 [2] was > 100 µM (inactive) and the IC50 [3] was > 100 µM (inactive).
For `Cc1ccccc1-n1c(=O)c(C#N)cc2c(=O)n3ccccc3nc21`, the EC50 [4] was > 160 µM (inactive), the EC50 [5] was 7.88 µM (active) and the EC50 [6] was > 38 µM (not active). For the same compound, the EC50 [7] was 2.58 µM (active) and the EC50 [8] was 7.45 µM (active).
For `COC(=O)CC1=NN(c2nc3ccccc3s2)C(=O)/C1=C(/C)Nc1ccc(OC)cc1`, the IC50 [9] was < 39.1 nM (active) and 4.12 µM (active), the IC50 [10] was 260 nM (active) and 2.38 µM (active) and the IC50 [11] was > 20 µM (inactive).
